Measured values from PubChem BioAssay AID192 (DTP/NCI, 2004).
Values joined by “and” are separate entries in the source; they are usually repeats but may differ in a detail not shown here. Equal entries are not always repeated. Inconclusive results and toxic doses are left out.

System: BDF1 mice, B16 melanoma ip, median survival T/C
Experiment: NCI In Vivo Anticancer Drug Screen. Data for tumor model B16 Melanoma (intraperitoneal) in B6D2F1 (BDF1) mice
Details: endpoint: median survival time, higher = longer survival
How it was run: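 Survival or tumor size is measured after treatment of tumor-bearing mice and normalised to the vehicle-treated control group.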

[1] = dose: 50.0 mg/kg/injection, schedule: Q01DX009 (ip), vehicle: Klucel (hydroxypropylcellulose) (HPC)
[2] = dose: 100.0 mg/kg/injection, schedule: Q01DX009 (ip), vehicle: Klucel (hydroxypropylcellulose) (HPC)
[3] = dose: 200.0 mg/kg/injection, schedule: Q01DX009 (ip), vehicle: Klucel (hydroxypropylcellulose) (HPC)
[4] = dose: 50.0 mg/kg/injection, schedule: Q01DX009 (ip), vehicle: saline with Tween-80
[5] = dose: 100.0 mg/kg/injection, schedule: Q01DX009 (ip), vehicle: saline with Tween-80
[6] = dose: 12.5 mg/kg/injection, schedule: Q01DX009 (ip), vehicle: saline with Tween-80
[7] = dose: 25.0 mg/kg/injection, schedule: Q01DX009 (ip), vehicle: saline with Tween-80
[8] = dose: 400.0 mg/kg/injection, schedule: Q01DX009 (ip), vehicle: Klucel (hydroxypropylcellulose) (HPC)

Q: With COc1cc2ccc3c[n+](C)ccc3c2cc1OC as the molecule, how does the T/C (dose: 12.5 mg/kg/injection, schedule: Q01DX009 (ip), vehicle: water) read?
A: 101 % of control

Q: And the T/C (dose: 25.0 mg/kg/injection, schedule: Q01DX009 (ip), vehicle: water)?
A: 106 % of control

Q: And the T/C (dose: 50.0 mg/kg/injection, schedule: Q01DX009 (ip), vehicle: water)?
A: 95 % of control

Q: And the T/C (dose: 100.0 mg/kg/injection, schedule: Q01DX009 (ip), vehicle: water)?
A: 101 % of control

Q: Which T/C (dose: 16.0 mg/kg/injection, schedule: Q01DX009 (ip), vehicle: Klucel (hydroxypropylcellulose) (HPC)) does the source give for Clc1ccc(C(c2ccc(Cl)cc2)C(Cl)(Cl)Cl)cc1 here?
A: 101 % of control

Q: And the T/C (dose: 32.0 mg/kg/injection, schedule: Q01DX009 (ip), vehicle: Klucel (hydroxypropylcellulose) (HPC))?
A: 92 % of control

Q: How did the T/C [1] turn out when O=c1oc2ccccc2c(O)c1C(c1ccc(C(c2c(O)c3ccccc3oc2=O)c2c(O)c3ccccc3oc2=O)cc1)c1c(O)c2ccccc2oc1=O was run?
A: 103 % of control

Q: And the T/C [2]?
A: 100 % of control

Q: What about the T/C [3] of the same molecule?
A: 93 % of control

Q: For O=C(Nc1ccc(Cl)cc1)c1cccnc1, which T/C [4] is on record?
A: 101 % of control

Q: What about the T/C [5] of the same molecule?
A: 106 % of control

Q: What about the T/C (dose: 200.0 mg/kg/injection, schedule: Q01DX009 (ip), vehicle: saline with Tween-80) of the same molecule?
A: 94 % of control

Q: Which results are given for O=C1c2ccccc2C(=O)c2c3c(cc(NCCNCCO)c21)N(CCO)CCN3?
A: T/C (dose: 12.5 mg/kg/injection, schedule: Q01DX009 (ip), vehicle: DMSO): 121 % of control; T/C (dose: 100.0 mg/kg/injection, schedule: Q01DX009 (ip), vehicle: DMSO): 162 % of control; T/C (dose: 200.0 mg/kg/injection, schedule: Q01DX009 (ip), vehicle: DMSO): 194 % of control

Q: For CCN(CC)CCNc1ccc(C)c2sc3ccc(O)cc3c(=O)c12, which T/C [6] is on record?
A: 110 % of control

Q: And the T/C [7]?
A: 161 % of control

Q: What about the T/C [4] of the same molecule?
A: 182 % of control

Q: And the T/C [5]?
A: 172 % of control

Q: For OC(CC(O)(C(F)(F)F)C(F)(F)F)c1cccc(Cl)c1 (stereo not drawn), which T/C (dose: 50.0 mg/kg/injection, schedule: Q04DX003 (ip), vehicle: gum acacia) is on record?
A: 105 % of control

Q: And the T/C (dose: 100.0 mg/kg/injection, schedule: Q04DX003 (ip), vehicle: gum acacia)?
A: 90 % of control

Q: What about the T/C (dose: 200.0 mg/kg/injection, schedule: Q04DX003 (ip), vehicle: gum acacia) of the same molecule?
A: 90 % of control

Q: What does the source list for C[Si](C)(C)Cc1ccccc1?
A: T/C [2]: 114 % of control; T/C [3]: 109 % of control

Q: How did the T/C (dose: 0.01 mg/kg/injection, schedule: Q01DX009 (ip), vehicle: saline) turn out when CCC1CC(O)c2c(O)c3c(c(O)c2C1O)C(=O)c1cccc(O)c1C3=O (stereo not drawn) (tested in a mixture with another compound) was run?
A: 95 % of control

Q: What about the T/C (dose: 0.03 mg/kg/injection, schedule: Q01DX009 (ip), vehicle: saline) of the same molecule?
A: 86 % of control

Q: And the T/C (dose: 0.06 mg/kg/injection, schedule: Q04DX003 (ip), vehicle: saline)?
A: 102 % of control

Q: What about the T/C (dose: 0.12 mg/kg/injection, schedule: Q04DX003 (ip), vehicle: saline) of the same molecule?
A: 109 % of control

Q: What about the T/C (dose: 15.0 micrograms/kg/injection, schedule: Q01DX009 (ip), vehicle: saline) of the same molecule?
A: 119 % of control

Q: For CCC1(O)CC(OC2CC(N(C)C)C(OC3CC(O)C(OC4CCC(=O)C(C)O4)C(C)O3)C(C)O2)c2c(cc3c(c2O)C(=O)c2c(O)ccc(O)c2C3=O)C1C(=O)OC (stereo not drawn), which T/C (dose: 0.23 mg/kg/injection, schedule: Q01DX009 (ip), vehicle: saline with Tween-80) is on record?
A: 98 % of control

Q: What about the T/C (dose: 3.6 mg/kg/injection, schedule: Q01DX001 (ip), vehicle: water) of the same molecule?
A: 101 % of control and 109 % of control

Q: And the T/C (dose: 6.0 mg/kg/injection, schedule: Q01DX001 (ip), vehicle: water)?
A: 106 % of control and 112 % of control

Q: And the T/C (dose: 10.0 mg/kg/injection, schedule: Q01DX001 (ip), vehicle: water)?
A: 111 % of control

Q: With O=C(Nc1cccc(C(F)(F)F)c1)c1cccc(C(=O)Nc2cccc(C(F)(F)F)c2)c1 as the molecule, how does the T/C (dose: 12.5 mg/kg/injection, schedule: Q01DX009 (ip), vehicle: Klucel (hydroxypropylcellulose) (HPC)) read?
A: 101 % of control

Q: What about the T/C (dose: 25.0 mg/kg/injection, schedule: Q01DX009 (ip), vehicle: Klucel (hydroxypropylcellulose) (HPC)) of the same molecule?
A: 106 % of control

Q: And the T/C [1]?
A: 108 % of control

Q: Cc1ccc(Cl)cc1NC(=O)c1ccccc1 was tested. Which T/C (dose: 75.0 mg/kg/injection, schedule: Q01DX009 (ip), vehicle: Klucel (hydroxypropylcellulose) (HPC)) did it give?
A: 93 % of control

Q: And the T/C (dose: 150.0 mg/kg/injection, schedule: Q01DX009 (ip), vehicle: Klucel (hydroxypropylcellulose) (HPC))?
A: 104 % of control

Q: And the T/C (dose: 300.0 mg/kg/injection, schedule: Q01DX009 (ip), vehicle: Klucel (hydroxypropylcellulose) (HPC))?
A: 105 % of control

Q: How did the T/C [2] turn out when COc1ccc(COC(=O)CN2C(=O)c3ccccc3C2=O)cc1 was run?
A: 105 % of control

Q: And the T/C [3]?
A: 107 % of control

Q: What about the T/C [8] of the same molecule?
A: 100 % of control

Q: Which results are given for COC(=O)C(N)Cc1ccc(O)c(O)c1 (stereo not drawn)?
A: T/C (dose: 25.0 mg/kg/injection, schedule: Q08HX018 (ip), vehicle: water): 122 % of control; T/C (dose: 50.0 mg/kg/injection, schedule: Q08HX018 (ip), vehicle: water): 111 % of control; T/C (dose: 50.0 mg/kg/injection, schedule: Q08HX030 (ip), vehicle: saline): 99 % of control; T/C (dose: 100.0 mg/kg/injection, schedule: Q01DX012 (ip), vehicle: saline): 102 % of control; T/C (dose: 100.0 mg/kg/injection, schedule: Q01DX014 (ip), vehicle: saline): 102 % of control; T/C (dose: 100.0 mg/kg/injection, schedule: Q08HX018 (ip), vehicle: water): 110 % of control; T/C (dose: 100.0 mg/kg/injection, schedule: Q08HX030 (ip), vehicle: saline): 104 % of control; T/C (dose: 200.0 mg/kg/injection, schedule: Q01DX012 (ip), vehicle: saline): 104 % of control; T/C (dose: 200.0 mg/kg/injection, schedule: Q01DX014 (ip), vehicle: saline): 104 % of control; T/C (dose: 200.0 mg/kg/injection, schedule: Q08HX018 (ip), vehicle: water): 113 % of control; T/C (dose: 200.0 mg/kg/injection, schedule: Q08HX030 (ip), vehicle: saline): 111 % of control; T/C (dose: 400.0 mg/kg/injection, schedule: Q01DX012 (ip), vehicle: saline): 120 % of control; T/C (dose: 400.0 mg/kg/injection, schedule: Q01DX014 (ip), vehicle: saline): 118 % of control; T/C (dose: 400.0 mg/kg/injection, schedule: Q08HX030 (ip), vehicle: saline): 107 % of control

Q: With COC(=O)C1C2OC(C(Br)C2Br)C1C(=O)OC (stereo not drawn) as the molecule, how does the T/C (dose: 100.0 mg/kg/injection, schedule: Q04DX003 (ip), vehicle: Klucel (hydroxypropylcellulose) (HPC)) read?
A: 103 % of control

Q: And the T/C (dose: 200.0 mg/kg/injection, schedule: Q04DX003 (ip), vehicle: Klucel (hydroxypropylcellulose) (HPC))?
A: 105 % of control

Q: And the T/C (dose: 400.0 mg/kg/injection, schedule: Q04DX003 (ip), vehicle: Klucel (hydroxypropylcellulose) (HPC))?
A: 101 % of control

Q: NCC(=O)Nc1ccc(O)cc1 was tested. Which T/C (dose: 150.0 mg/kg/injection, schedule: Q01DX009 (ip), vehicle: saline) did it give?
A: 94 % of control

Q: What about the T/C (dose: 300.0 mg/kg/injection, schedule: Q01DX009 (ip), vehicle: saline) of the same molecule?
A: 105 % of control

Q: Which T/C (dose: 18.75 mg/kg/injection, schedule: Q01DX009 (ip), vehicle: Klucel (hydroxypropylcellulose) (HPC)) does the source give for CN(C)N=Nc1c(Cl)cccc1Cl here?
A: 101 % of control

Q: And the T/C (dose: 37.5 mg/kg/injection, schedule: Q01DX009 (ip), vehicle: Klucel (hydroxypropylcellulose) (HPC))?
A: 105 % of control

Q: How did the T/C (dose: 12.5 mg/kg/injection, schedule: Q01DX009 (ip), vehicle: saline) turn out when CCCCOCCC1CCNCC1 was run?
A: 116 % of control

Q: What about the T/C (dose: 25.0 mg/kg/injection, schedule: Q01DX009 (ip), vehicle: saline) of the same molecule?
A: 106 % of control

Q: What about the T/C (dose: 50.0 mg/kg/injection, schedule: Q01DX009 (ip), vehicle: saline) of the same molecule?
A: 110 % of control

Q: What does the source list for CCOC(=O)c1cncc(C(=O)OCC)c1?
A: T/C [2]: 107 % of control; T/C [3]: 113 % of control; T/C [8]: 106 % of control

Q: How did the T/C (dose: 2.5 mg/kg/injection, schedule: Q01DX009 (ip), vehicle: saline) turn out when N#CC(Br)C(N)=O (stereo not drawn) was run?
A: 93 % of control

Q: What about the T/C (dose: 5.0 mg/kg/injection, schedule: Q01DX009 (ip), vehicle: saline) of the same molecule?
A: 94 % of control

Q: What does the source list for O=[N+]([O-])c1ccc(S(=O)(=O)N/N=C\c2ccc(Cl)c(Cl)c2)cc1?
A: T/C [6]: 109 % of control; T/C [7]: 114 % of control; T/C [4]: 112 % of control

Q: CCCSc1ncnc2nc[nH]c12 was tested. Which T/C [6] did it give?
A: 102 % of control

Q: And the T/C [7]?
A: 102 % of control

Q: What about the T/C [4] of the same molecule?
A: 97 % of control and 115 % of control

Q: What about the T/C [5] of the same molecule?
A: 107 % of control
